In US10172954B2, “Use of a reverse-micellar system for delivering chelators of radionuclides and metals” (priority 2014, dated 2019):

Key:
[1] = Pu decorporation in rats contaminated i.v. with plutonium citrate, chronic intrarectal treatment, liver and femur alpha activity; conditions: cumulative CaNa3DTPA doses 44.3 to 307.6 μmol/kg, rectal, treatment from D+4
[2] = oral delivery; DTPA highly polar at neutral pH; cited from earlier work

Row | Structure (SMILES) | efficacy of decorporation in liver or bone Pu deposits as a function of cumulative dose [1] | absorbed when delivered orally [2]
1 | O=C([O-])CN(CCN(CC(=O)[O-])CC(=O)[O-])CCN(CC(=O)[O-])CC(=O)[O-].[Ca+2].[Na+].[Na+].[Na+] [CaNa3DTPA, pentetate calcium trisodium] | proportional to the administered dose cumulative | –
2 | O=C(O)CN(CCN(CC(=O)O)CC(=O)O)CCN(CC(=O)O)CC(=O)O [DTPA, diethylene triaminopentaacetic acid] | – | < 10%
